Data: patent publication US20070066570A1, “Methods for treating sleep disorders” (priority 2003, published 2007)

System: Adult, male Wistar rats
Test: Sleep-wakefulness monitoring (EEG/EMG, SCORE-2000) in rats: NREM sleep cumulation and longest uninterrupted sleep bout
Assay type: in vivo, rat
Details: for LUSB (longest uninterrupted sleep bout each hour, mean adjusted for baseline and vehicle control) / NREM (mean maximum cumulation of NREM sleep over baseline, adjusted for baseline and vehicle control): intraperitoneal bolus at CT-18, male Wistar rats; for Increase of NREM sleep cumulation versus vehicle control (FIGS. 1-3), in words / Increase of LUSB versus vehicle control (FIGS. 4-6), in words: rats
Experimental: Sleep-wakefulness, locomotor activity and body temperature were monitored in vivo with the disclosed racemic sleep-inducing agent 1 and its R and S isomers 1-R and 1-S. Adult, male Wistar rats (250 g at time of surgery, Charles River Laboratories, Wilmington Mass.) were anesthetized (Nembutal, 62 mg/kg) and surgically prepared with a cranial implant to permit chronic electro-encephalogram (EEG) and electromyogram (EMG) recording. Body temperature and locomotor activity were monitored via a miniature transmitter (Mini-Mitter, Bend, Oreg.) surgically placed in the abdomen. The cranial implant consisted of stainless steel screws (two frontal [+3.2 AP from bregma, ±2.0 ML] and two occipital [−6.9 AP, ±5.5 ML]) for EEG recording. Two Teflon®-coated stainless steel wires were positioned under the nuchal trapezoid muscles for EMG recording. All leads were soldered to a miniature connector prior to surgery, and gas sterilized in ethylene oxide. The implant assembly was affixed to the skull with dental acrylic. A minimum of three weeks was allowed for surgical recovery.
Each rat was permanently housed in its own individual recording cage located within separate, ventilated compartments of custom- designed stainless steel cabinets. Each cage was enhanced with a filter-top riser and low-torque swivel-commutator. Food and water were available ad libitum. A 24-hr light-dark cycle (12 hours light, 12 hours dark) was maintained throughout the study using 4-watt fluorescent bulbs 5 cm from the cage. Animals were undisturbed for at least 48 hours before and after treatments.
Sleep and wakefulness were determined using “SCORE-2000™” (Hypnion, Worcester, Mass.)—an internet-based sleep-wake and physiological monitoring system. The system monitored amplified EEG (bandpass 1-30 Hz; digitization rate 400 Hz), integrated EMG (bandpass 10-100 Hz), body temperature and non-specific locomotor activity (LMA) via telemetry, and drinking activity, continuously and simultaneously. Arousal states were classified on-line as non-REM (NREM) sleep, REM sleep, wake, or theta-dominated wake every 10 seconds using EEG feature extraction and pattern-matching algorithms. […] The classification algorithm used individually-taught EEG-arousal-state templates, plus EMG criteria to differentiate REM sleep from theta-dominated wakefulness, plus behavior-dependent contextual rules (e.g., if the animal was drinking, it is awake). Drinking and locomotor activity (LMA) were recorded as discrete events every 10 seconds, while body temperature was recorded each minute. Locomotor activity was detected by a telemetry receiver (Mini-Mitter) beneath the cage. Telemetry measures (LMA and body temperature) were not part of the scoring algorithm; thus, sleep-scoring and telemetry data were independent measures.
Compounds were administered at CT-18, the peak of the activity-dominated period, in order to ensure prior wakefulness was sufficient to interact positively with hypnotic-drug effects, and sufficient time was allowed to view the time course of the treatment effect before lights-on (6 hours post-treatment). Compounds were suspended in sterile 0.25% or 0.5% methylcellulose (2 ml/kg). Treatments were administered as an intraperitoneal bolus.
A parallel group study design was employed. Vehicle controls were drawn from a large pool (N>200): a subset of the pooled vehicle controls was selected, based on computerized matching with the 24-hour pre-treatment baseline of the active treatment group.
In Table 1, N is the number of trials, and NREM and LUSB values are means adjusted for both baseline and vehicle control values. NREM represents the mean maximum cumulation of NREM sleep in minutes over baseline as a function of time in hours after treatment with the compound or the vehicle control; LUSB is the longest uninterrupted sleep bout each hour in minutes as a function of circadian time.

| SMILES | LUSB (longest uninterrupted sleep bout each hour, mean adjusted for baseline and vehicle control) (3 mg/kg) [min] | NREM (mean maximum cumulation of NREM sleep over baseline, adjusted for baseline and vehicle control) (3 mg/kg) [min] | LUSB (longest uninterrupted sleep bout each hour, mean adjusted for baseline and vehicle control) (10 mg/kg) [min] | NREM (mean maximum cumulation of NREM sleep over baseline, adjusted for baseline and vehicle control) (10 mg/kg) [min] | Increase of NREM sleep cumulation versus vehicle control (FIGS. 1-3), in words (10 mg/kg) | LUSB (longest uninterrupted sleep bout each hour, mean adjusted for baseline and vehicle control) (30 mg/kg) [min] | NREM (mean maximum cumulation of NREM sleep over baseline, adjusted for baseline and vehicle control) (30 mg/kg) [min] | Increase of LUSB versus vehicle control (FIGS. 4-6), in words (30 mg/kg) | Increase of NREM sleep cumulation versus vehicle control (FIGS. 1-3), in words (30 mg/kg) | LUSB (longest uninterrupted sleep bout each hour, mean adjusted for baseline and vehicle control) (45 mg/kg) [min] | NREM (mean maximum cumulation of NREM sleep over baseline, adjusted for baseline and vehicle control) (45 mg/kg) [min] |
| --- | --- | --- | --- | --- | --- | --- | --- | --- | --- | --- | --- |
| O=C(O)C1CCCN(CCC=C2c3ccccc3CCc3ccccc32)C1 (racemic) [Compound 1] | 4.7 | 15 | 2.8 | 24.8 | particularly effective | 4.9 | 35.4 | effective at increasing LUSB | effective at increasing NREM cumulation | – | – |
| O=C(O)[C@@H]1CCCN(CCC=C2c3ccccc3CCc3ccccc32)C1 [Compound 1-R] | – | – | 2.5 | 3.4 | – | 5.8 | 20.7 | effective at increasing LUSB | effective at increasing NREM cumulation | 10.3 | 31.8 |
| O=C(O)[C@H]1CCCN(CCC=C2c3ccccc3CCc3ccccc32)C1 [Compound 1-S] | – | – | 5.5 | 31.9 | particularly effective | 9.7 | 31.8 | effective at increasing LUSB | effective at increasing NREM cumulation | – | – |
